{"source": "patent US8106055B2", "about": "“Substituted amide compounds” (Gruenenthal GmbH, priority 2007, dated 2012)", "data": [{"target": "T1, human μ opiate receptor (Homo sapiens, UniProt P35372)", "T1 construct": "purchased PerkinElmer Life Sciences, Zaventem, Belgium RB-HOM; host or cells: CHO-K1 cells (membrane preparation)", "T1 sequence (P35372 whole entry)": "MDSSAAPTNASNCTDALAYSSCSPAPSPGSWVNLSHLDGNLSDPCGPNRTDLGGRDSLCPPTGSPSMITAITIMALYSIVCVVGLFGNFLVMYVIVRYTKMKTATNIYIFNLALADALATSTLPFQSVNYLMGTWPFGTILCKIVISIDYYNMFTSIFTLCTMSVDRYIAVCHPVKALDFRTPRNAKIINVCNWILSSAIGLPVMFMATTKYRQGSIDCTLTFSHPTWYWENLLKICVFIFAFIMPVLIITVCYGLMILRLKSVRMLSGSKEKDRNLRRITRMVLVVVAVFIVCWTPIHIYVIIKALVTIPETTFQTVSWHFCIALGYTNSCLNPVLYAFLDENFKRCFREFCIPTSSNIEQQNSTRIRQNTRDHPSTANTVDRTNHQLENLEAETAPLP", "assay": "Affinity for the human μ opiate receptor ([3H]-naloxone displacement, CHO-K1 receptor membrane preparation, SPA)", "format": "binding", "details": "test concentration of 1 μM; read-out: μ (binding on the μ opioid receptor, % inhibition)", "method_in_brief": "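Test compounds, 1 nmol/l [3H]-naloxone and CHO-K1 membranes bearing the human μ opiate receptor are combined with WGA-SPA beads. After 90 minutes at room temperature, plates are centrifuged and radioactivity counted. Specific-binding inhibition at 1 μmol/l is given in percent.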", "units": {"inhibition at 1 µM": "%"}, "values": [{"smiles": "COc1ccc(S(=O)(=O)N2CCCCC2CCOCC(=O)NC2CCC(C(c3cccc(F)c3)N(C)C)CC2)cc1", "note": "(centres unmarked) [Example 62, N-(4-((dimethylamino)(3-fluorophenyl)methyl)cyclohexyl)-2-(2-(1-(4-methoxyphenylsulfonyl)piperidin-2-yl)ethoxy)acetamide]", "inhibition at 1 µM": 95}, {"smiles": "Cc1cc(C)c(S(=O)(=O)N2CCC(OCC(=O)NC3CCC(C(c4ccccc4)N(C)C)CC3)C2)c(C)c1", "note": "(centres unmarked) [Example 64, N-(4-((dimethylamino)(phenyl)methyl)cyclohexyl)-2-(1-(mesitylsulfonyl)pyrrolidin-3-yloxy)acetamide]", "inhibition at 1 µM": 94}, {"smiles": "CN(C)C(c1cccs1)C1CCC(CCNC(=O)COCCN(C)S(=O)(=O)c2ccc(OC(F)(F)F)cc2)CC1", "note": "(centres unmarked) [Example 65, N-(2-(4-((dimethylamino)(thiophen-2-yl)methyl)cyclohexyl)ethyl)-2-(2-(N-methyl-4-(trifluoromethoxy)phenylsulfonamido)ethoxy)acetamide]", "inhibition at 1 µM": 96}, {"smiles": "CN(C)C(c1cccs1)C1CCC(CCNC(=O)COC2CCN(S(=O)(=O)c3ccc(Cl)cc3)C2)CC1", "note": "(centres unmarked) [Example 66, 2-(1-(4-chlorophenylsulfonyl)pyrrolidin-3-yloxy)-N-(2-(4-((dimethylamino)(thiophen-2-yl)methyl)cyclohexyl)ethyl)acetamide]", "inhibition at 1 µM": 93}, {"smiles": "CN(C)C(c1ccccc1)C1CCC(CNC(=O)COC2CCN(S(=O)(=O)c3ccc(Cl)cc3Cl)C2)CC1", "note": "(centres unmarked) [Example 67, 2-(1-(2,4-dichlorophenylsulfonyl)pyrrolidin-3-yloxy)-N-((4-((dimethylamino)(phenyl)methyl)cyclohexyl)methyl)acetamide]", "inhibition at 1 µM": 96}, {"smiles": "Cc1ccc(S(=O)(=O)N2CCC(OCC(=O)NCC3CCC(C(c4cccs4)N(C)C)CC3)C2)cc1", "note": "(centres unmarked) [Example 68, N-((4-((dimethylamino)(thiophen-2-yl)methyl)cyclohexyl)methyl)-2-(1-tosylpyrrolidin-3-yloxy)acetamide]", "inhibition at 1 µM": 93}, {"smiles": "COc1cc(C)c(S(=O)(=O)N(C)CCOCC(=O)NCC2CCC(C(c3cccs3)N(C)C)CC2)c(C)c1", "note": "(centres unmarked) [Example 69, N-((4-((dimethylamino)(thiophen-2-yl)methyl)cyclohexyl)methyl)-2-(2-(4-methoxy-N,2,6-trimethylphenylsulfonamido)ethoxy)acetamide]", "inhibition at 1 µM": 96}, {"smiles": "CN(C)C(c1cccc(F)c1)C1CCC(CNC(=O)COCCN(C)S(=O)(=O)c2ccc(Cl)cc2Cl)CC1", "note": "(centres unmarked) [Example 70, 2-(2-(2,4-dichloro-N-methylphenylsulfonamido)ethoxy)-N-((4-((dimethylamino)(3-fluorophenyl)methyl)cyclohexyl)methyl)acetamide]", "inhibition at 1 µM": 91}, {"smiles": "Cc1cc(C)c(S(=O)(=O)N2CCC(OCC(=O)NCCC3CCC(C(c4cccs4)N(C)C)CC3)C2)c(C)c1", "note": "(centres unmarked) [Example 71, N-(2-(4-((dimethylamino)(thiophen-2-yl)methyl)cyclohexyl)ethyl)-2-(1-(mesitylsulfonyl)pyrrolidin-3-yloxy)acetamide]", "inhibition at 1 µM": 94}, {"smiles": "CN(C)C(c1cccc(F)c1)C1CCC(CNC(=O)COCCN(C)S(=O)(=O)c2c(Cl)cccc2Cl)CC1", "note": "(centres unmarked) [Example 72, 2-(2-(2,6-dichloro-N-methylphenylsulfonamido)ethoxy)-N-((4-((dimethylamino)(3-fluorophenyl)methyl)cyclohexyl)methyl)acetamide]", "inhibition at 1 µM": 92}, {"smiles": "COc1ccc(S(=O)(=O)N(C)CCOCC(=O)NC2CCC(C(c3cccs3)N(C)C)CC2)cc1", "note": "(centres unmarked) [Example 73, N-(4-((dimethylamino)(thiophen-2-yl)methyl)cyclohexyl)-2-(2-(4-methoxy-N-methylphenylsulfonamido)ethoxy)acetamide]", "inhibition at 1 µM": 90}, {"smiles": "COc1cc(C)c(S(=O)(=O)N2CCC(OCC(=O)NCCC3CCC(C(c4cccs4)N(C)C)CC3)C2)c(C)c1C", "note": "(centres unmarked) [Example 74, N-(2-(4-((dimethylamino)(thiophen-2-yl)methyl)cyclohexyl)ethyl)-2-(1-(4-methoxy-2,3,6-trimethylphenylsulfonyl)pyrrolidin-3-yloxy)acetamide]", "inhibition at 1 µM": 90}, {"smiles": "COc1cc(C)c(S(=O)(=O)N2CCC(CCOCC(=O)NCCC3CCC(C(c4cccs4)N(C)C)CC3)CC2)c(C)c1C", "note": "(centres unmarked) [Example 75, N-(2-(4-((dimethylamino)(thiophen-2-yl)methyl)cyclohexyl)ethyl)-2-(2-(1-(4-methoxy-2,3,6-trimethylphenylsulfonyl)piperidin-4-yl)ethoxy)acetamide]", "inhibition at 1 µM": 92}, {"smiles": "COc1cc(C)c(S(=O)(=O)N2CCN(CCOCC(=O)NC3CCC(C(c4cccc(F)c4)N(C)C)CC3)CC2)c(C)c1C", "note": "(centres unmarked) [Example 76, N-(4-((dimethylamino)(3-fluorophenyl)methyl)cyclohexyl)-2-(2-(4-(4-methoxy-2,3,6-trimethylphenylsulfonyl)piperazin-1-yl)ethoxy)acetamide]", "inhibition at 1 µM": 93}, {"smiles": "COc1ccc(S(=O)(=O)N2CCCC2COCC(=O)NCCC2CCC(C(c3cccs3)N(C)C)CC2)cc1", "note": "(centres unmarked) [Example 77, N-(2-(4-((dimethylamino)(thiophen-2-yl)methyl)cyclohexyl)ethyl)-2-((1-(4-methoxyphenylsulfonyl)pyrrolidin-2-yl)methoxy)acetamide]", "inhibition at 1 µM": 96}, {"smiles": "CN(C)C(c1ccccc1)C1CCC(CNC(=O)COC2CCCCC2N(C)S(=O)(=O)c2ccc(Cl)c(Cl)c2)CC1", "note": "(centres unmarked) [Example 78, 2-(2-(3,4-dichloro-N-methylphenylsulfonamido)cyclohexyloxy)-N-((4-((dimethylamino)(phenyl)methyl)cyclohexyl)methyl)acetamide]", "inhibition at 1 µM": 95}, {"smiles": "COc1cc(C)c(S(=O)(=O)N(C)CCOCC(=O)NC2CCC(C(c3ccccc3)N(C)C)CC2)c(C)c1C", "note": "(centres unmarked) [Example 80, N-(4-((dimethylamino) (phenyl)methyl)cyclohexyl)-2-(2-(4-methoxy-N,2,3,6-tetramethylphenylsulfonamido)ethoxy)acetamide]", "inhibition at 1 µM": 93}, {"smiles": "CN(C)C(c1ccccc1)C1CCC(CNC(=O)COC2CCN(S(=O)(=O)c3ccc(Cl)cc3)C2)CC1", "note": "(centres unmarked) [Example 81, 2-(1-(4-chlorophenylsulfonyl)pyrrolidin-3-yloxy)-N-((4-((dimethylamino)(phenyl)methyl)cyclohexyl)methyl)acetamide]", "inhibition at 1 µM": 91}, {"smiles": "Cc1ccc(S(=O)(=O)N(C)CCOCC(=O)NCCC2CCC(C(c3cccs3)N(C)C)CC2)cc1", "note": "(centres unmarked) [Example 82, N-(2-(4-((dimethylamino)(thiophen-2-yl)methyl)cyclohexyl)ethyl)-2-(2-(N,4-dimethylphenylsulfonamido)ethoxy)acetamide]", "inhibition at 1 µM": 95}, {"smiles": "CN(C)C(c1cccs1)C1CCC(NC(=O)COCCN(C)S(=O)(=O)c2ccc(Cl)cc2)CC1", "note": "(centres unmarked) [Example 83, 2-(2-(4-chloro-N-methylphenylsulfonamido)ethoxy)-N-(4-((dimethylamino) (thiophen-2-yl)methyl)cyclohexyl)acetamide]", "inhibition at 1 µM": 94}, {"smiles": "COc1cc(C)c(S(=O)(=O)N(C)CCOCC(=O)NCCC2CCC(C(c3cccs3)N(C)C)CC2)c(C)c1", "note": "(centres unmarked) [Example 84, N-(2-(4-((dimethylamino)(thiophen-2-yl)methyl)cyclohexyl)ethyl)-2-(2-(4-methoxy-N,2,6-trimethylphenylsulfonamido)ethoxy)acetamide]", "inhibition at 1 µM": 95}, {"smiles": "CN(C)C(c1cccs1)C1CCC(CCNC(=O)COCCN(C)S(=O)(=O)c2ccc(F)cc2)CC1", "note": "(centres unmarked) [Example 85, N-(2-(4-((dimethylamino)(thiophen-2-yl)methyl)cyclohexyl)ethyl)-2-(2-(4-fluoro-N-methylphenylsulfonamido)ethoxy)acetamide]", "inhibition at 1 µM": 92}, {"smiles": "COc1cc(C)c(S(=O)(=O)N2CCC(OCC(=O)NCC3CCC(C(c4cccs4)N(C)C)CC3)C2)c(C)c1", "note": "(centres unmarked) [Example 86, N-((4-((dimethylamino)(thiophen-2-yl)methyl)cyclohexyl)methyl)-2-(1-(4-methoxy-2,6-dimethylphenylsulfonyl)pyrrolidin-3-yloxy)acetamide]", "inhibition at 1 µM": 95}, {"smiles": "CN(C)C(c1cccc(F)c1)C1CCC(CNC(=O)COCC2CCCCN2S(=O)(=O)c2ccc(Cl)c(Cl)c2)CC1", "note": "(centres unmarked) [Example 87, 2-((1-(3,4-dichlorophenylsulfonyl)piperidin-2-yl)methoxy)-N-((4-((dimethylamino)(3-fluorophenyl)methyl)cyclohexyl)methyl)acetamide]", "inhibition at 1 µM": 93}, {"smiles": "COc1ccc(S(=O)(=O)N2CCCCC2COCC(=O)NCC2CCC(C(c3ccccc3)N(C)C)CC2)cc1", "note": "(centres unmarked) [Example 88, N-((4-((dimethylamino)(phenyl)methyl)cyclohexyl)methyl)-2-((1-(4-methoxyphenylsulfonyl)piperidin-2-yl)methoxy)acetamide]", "inhibition at 1 µM": 94}, {"smiles": "COc1ccc(S(=O)(=O)N2CCCCC2CCOCC(=O)NCC2CCC(C(c3ccccc3)N(C)C)CC2)cc1", "note": "(centres unmarked) [Example 89, N-((4-((dimethylamino)(phenyl)methyl)cyclohexyl)methyl)-2-(2-(1-(4-methoxyphenylsulfonyl)piperidin-2-yl)ethoxy)acetamide]", "inhibition at 1 µM": 93}, {"smiles": "COc1ccc(S(=O)(=O)N2CCCCC2CCOCC(=O)NCC2CCC(C(c3cccs3)N(C)C)CC2)cc1", "note": "(centres unmarked) [Example 90, N-((4-((dimethylamino)(thiophen-2-yl)methyl)cyclohexyl)methyl)-2-(2-(1-(4-methoxyphenylsulfonyl)piperidin-2-yl)ethoxy)acetamide]", "inhibition at 1 µM": 95}, {"smiles": "CN(C)C(c1ccccc1)C1CCC(CNC(=O)COCCN(C)S(=O)(=O)c2cccc(C(F)(F)F)c2)CC1", "note": "(centres unmarked) [Example 91, N-((4-((dimethylamino)(phenyl)methyl)cyclohexyl)methyl)-2-(2-(N-methyl-3-(trifluoromethyl)phenylsulfonamido)ethoxy)acetamide]", "inhibition at 1 µM": 91}, {"smiles": "CN(C)C(c1cccs1)C1CCC(CNC(=O)COCCN(C)S(=O)(=O)c2cccc(C(F)(F)F)c2)CC1", "note": "(centres unmarked) [Example 92, N-((4-((dimethylamino)(thiophen-2-yl)methyl)cyclohexyl)methyl)-2-(2-(N-methyl-3-(trifluoromethyl)phenylsulfonamido)ethoxy)acetamide]", "inhibition at 1 µM": 94}]}]}
